#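 Tested at 5 concentrations; 48 h exposure; 96-well plates; endpoints linearly interpolated, else capped at highest concentration. GI50 = concentration required for 50% inhibition of growth. The concentration for full growth arrest is given as TGI.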
# Experiments:
# Experiment in all cases: growth of human tumour cells (NCI), 48 h
# HT29 colon = system: HT29 colon
# PC-3 prostate = system: PC-3 prostate
# A498 renal = system: A498 renal
# SR leukemia = system: SR leukemia
# SF-539 CNS = system: SF-539 CNS
# BT-549 breast = system: BT-549 breast
# SW-620 colon = system: SW-620 colon
# M14 melanoma = system: M14 melanoma
# TK-10 renal = system: TK-10 renal
# MDA-N = system: MDA-N
SMILES,TGI (HT29 colon) [µM],TGI (PC-3 prostate) [µM],TGI (A498 renal) [µM],TGI (SR leukemia) [µM],TGI (SF-539 CNS) [µM],TGI (BT-549 breast) [µM],TGI (SW-620 colon) [µM],TGI (M14 melanoma) [µM],TGI (TK-10 renal) [µM],TGI (MDA-N) [µM],GI50 (PC-3 prostate) [µM],GI50 (SF-539 CNS) [µM],GI50 (BT-549 breast) [µM],GI50 (M14 melanoma) [µM]
O=C(Cn1c(=O)oc2ccc(C(=O)c3cccc(Cl)c3)cc21)c1ccccc1,> 100,> 100,95.8,> 100,> 100,> 100,> 100,> 100,> 100,–,–,–,–,–
Cc1cc(S(=O)(=O)Nc2n[nH]c(Nc3ccccc3)n2)c(SSc2cc(Cl)c(C)cc2S(=O)(=O)Nc2n[nH]c(Nc3ccccc3)n2)cc1Cl,> 100,> 100,–,> 100,> 10,> 100,> 100,> 100,> 100,> 100,–,–,–,–
Cc1cc(OCc2nnc3n2N=C(c2cc(F)c(Cl)cc2Cl)/C(=C/c2ccc(-c4ccc(Cl)cc4)o2)S3)ccc1Cl,> 50,> 50,> 50,> 50,–,> 50,> 50,> 50,> 50,> 50,–,–,–,–
O=c1onc(Nc2ccccc2)n1-c1ccccc1,> 100,> 100,> 100,> 100,> 100,> 100,> 100,> 100,> 100,> 100,–,–,–,–
COc1cccc(N(CN2C(=O)CCC2OC)C(C)=O)c1 (centres undefined),> 100,> 100,> 100,> 100,> 100,–,> 100,> 100,> 100,> 100,–,–,–,–
COC(=O)C(CNC(=O)/C=C/c1ccc(OC(C)=O)c(OC(C)=O)c1)NC(=O)/C=C/c1ccc(OC(C)=O)c(OC(C)=O)c1 (centres undefined),> 100,> 100,> 100,> 100,> 100,> 100,> 100,> 100,> 100,> 100,–,–,–,–
O=NNc1c[nH]c(=O)[nH]c1=O,–,> 100,> 100,–,> 100,–,> 100,> 100,> 100,> 100,–,–,–,–
CCOP(=O)(Cc1nc(C#N)c(N)o1)OCC,> 100,> 100,> 100,> 100,–,–,> 100,–,> 100,> 100,–,–,–,–
C=C1CC(O)C2C(=C)C(=O)OC2C2C(C)C(=O)CC12 (centres undefined),42.8,> 100,63.3,53.2,54.2,21.5,30.7,25.6,18.7,20.3,–,–,–,–
CCCCCCCCCCOc1ccc(N=Nc2nnc(-c3ccc(OCCCCC)cc3)s2)cc1,> 100,> 100,> 100,–,> 100,> 100,> 100,> 100,> 100,> 100,–,–,–,–
CC1=NN2CCC(=O)N=C2S1,> 100,> 100,–,> 100,> 100,> 100,> 100,> 100,> 100,> 100,–,–,–,–
CCN(CC)C(=O)c1cc([N+](=O)[O-])c(=O)n2c1[nH]c1ccccc12,> 100,> 100,–,> 100,> 100,–,> 100,> 100,> 100,> 100,–,–,–,–
CCN(CCC#N)C(=O)Nc1ccccc1,> 100,> 100,–,–,> 100,> 100,> 100,> 100,> 100,> 100,–,–,–,–
Cn1c(-c2c(C3=CC(=O)N(c4ccccc4)C3=O)c3ccccc3n2C)cc2ccccc21,> 100,> 100,–,> 100,> 100,–,> 100,> 100,> 100,> 100,–,–,–,–
NNS(=O)(=O)c1ccc(/C=C2\NC(=O)NC2=O)cc1,> 100,> 100,> 100,–,–,> 100,> 100,> 100,> 100,> 100,–,–,–,–
CC1CN=C(c2ccc(CN3CCC(CCCC4CCN(Cc5ccc(C6=NCC(C)N6)cc5)CC4)CC3)cc2)N1 (centres undefined),> 100,> 100,> 100,–,> 100,> 100,> 100,> 100,> 100,38.8,–,–,–,–
CN1C/C(=C\c2cccs2)C(=O)/C(=C/c2cccs2)C1,50.5,> 100,71.2,–,–,72.1,> 100,82.9,> 100,61.7,–,–,–,–
N=C(N)c1ccc(-c2ccc(-c3ccc(Cl)cc3Cl)s2)nc1,–,3.67,–,–,3.06,28.6,–,3.63,–,–,1.86,1.66,6.53,1.85
CC1=NN(c2nc(N)nc(-c3cc4ccccc4oc3=N)n2)C(C)(C)C1,40.2,33,66.9,46.8,34.1,47,–,36,38.4,31.2,–,–,–,–
COC(=O)/C=C\C(C#N)(C#N)N=Cc1ccc(Br)cc1,6.22,32.4,29.8,> 100,–,25.2,> 22.4,22.6,6.59,20.1,–,–,–,–
C=C(Cl)CN1c2ccccc2C=Cc2ccccc21,56.4,> 100,66.9,–,75.2,> 100,–,57.8,> 100,64.1,–,–,–,–
CCc1n[nH]c(=O)[nH]1,> 100,> 100,–,> 100,> 100,> 100,–,> 100,> 100,> 100,–,–,–,–
Cc1ccc2c(c1)Nc1ccccc1P2(=O)O,> 100,> 100,> 100,> 100,> 100,–,> 100,> 100,> 100,> 100,–,–,–,–
CC(C)N1[C@@H]2CCCC[C@H]2N(C(C)C)[P+]1=O,> 100,–,> 100,> 100,> 100,–,> 100,> 100,> 100,> 100,–,–,–,–
NC(=S)NS(=O)(=O)c1ccc(Cl)cc1,> 100,> 100,–,–,> 100,> 100,> 100,> 100,> 100,> 100,–,–,–,–

# Reference: PubChem BioAssay (NCI)
